Assay results reported in patent US5952328A, “Benzothiazo and related heterocyclic group-containing cysteine and serine protease inhibitors” (Cephalon, Inc., priority 1997, dated 1999).
Where two headings read alike, the source gives them in different places.

Target: T1, Calpain I (Homo sapiens, UniProt P07384)
T1 construct: made in house
T1 sequence (P07384 1-714): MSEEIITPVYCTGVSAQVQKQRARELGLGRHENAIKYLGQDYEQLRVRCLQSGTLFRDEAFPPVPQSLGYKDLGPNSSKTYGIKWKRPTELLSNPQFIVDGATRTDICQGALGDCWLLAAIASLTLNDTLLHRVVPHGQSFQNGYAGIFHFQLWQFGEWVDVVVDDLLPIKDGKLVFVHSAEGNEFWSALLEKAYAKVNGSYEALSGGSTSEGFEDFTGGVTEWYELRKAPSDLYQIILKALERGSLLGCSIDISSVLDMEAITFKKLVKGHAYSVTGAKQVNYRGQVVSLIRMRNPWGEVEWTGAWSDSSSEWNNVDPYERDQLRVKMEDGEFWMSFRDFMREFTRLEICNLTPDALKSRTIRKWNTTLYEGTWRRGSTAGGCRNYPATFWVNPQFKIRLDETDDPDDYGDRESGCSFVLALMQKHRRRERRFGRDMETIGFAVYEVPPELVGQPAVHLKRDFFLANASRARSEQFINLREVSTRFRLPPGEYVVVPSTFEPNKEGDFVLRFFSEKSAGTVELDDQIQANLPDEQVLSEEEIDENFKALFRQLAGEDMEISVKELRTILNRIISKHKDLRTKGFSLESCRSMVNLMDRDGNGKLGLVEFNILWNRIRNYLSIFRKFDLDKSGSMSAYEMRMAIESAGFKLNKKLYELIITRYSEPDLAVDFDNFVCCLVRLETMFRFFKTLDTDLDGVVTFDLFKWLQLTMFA
T1 sequence (P04632 1-268 partner): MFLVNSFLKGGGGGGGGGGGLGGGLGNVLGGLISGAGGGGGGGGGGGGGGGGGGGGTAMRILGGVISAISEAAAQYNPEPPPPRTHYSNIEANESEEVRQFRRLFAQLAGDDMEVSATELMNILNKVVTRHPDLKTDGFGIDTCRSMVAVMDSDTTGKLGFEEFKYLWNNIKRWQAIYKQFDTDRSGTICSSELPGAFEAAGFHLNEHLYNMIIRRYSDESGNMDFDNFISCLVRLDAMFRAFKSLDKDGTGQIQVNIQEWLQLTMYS
Test: Inhibition of calpain I activity (Succ-Leu-Tyr-MNA substrate hydrolysis, fluorescence)
Type: biochemical
Description: To evaluate inhibitory activity, stock solutions (40 times concentrated) of each compound to be tested were prepared in 100% anhydrous DMSO and […] of each inhibitor preparation were aliquoted into each of three wells of a 96-well plate. Calpain I, prepared by a modification of the method of W. J. Lee et al. (Biochem. […] To start the reaction, […] of 50 mM CaCl2 in assay buffer was added to each of the wells of the plate, excepting three, which were used as background signal baseline controls. Substrate hydrolysis was monitored every 5 minutes for a total of 30 minutes using a Fluoroskan II fluorescence plate reader. […] Inhibition of calpain I activity was calculated as the percent decrease in the rate of substrate hydrolysis in the presence of inhibitor relative to the rate in its absence. Comparison between the inhibited and control rates was made within the linear range for substrate hydrolysis. For screening, compounds were tested at […]. […] The results were plotted as percent inhibition versus log inhibitor concentration, and the IC50 was calculated from linear regression of the data.

Row | IC50 (Table VI, calpain I, 0.2 mM Succ-Leu-Tyr-MNA, pH 7.5, read-out: IC50) | IC50 (Example 187, in text, bisulfite addition compound, read-out: IC50 (calpain)) | Structure (SMILES)
1 | ~10 µM |  | CCCCNC(=O)C(=O)[C@H](Cc1ccccc1)NC(=O)C1=Nc2cc3c(cc2S(=O)(=O)N1)OCCO3 [Cpd 42d, 3-((2H-6,7-Ethylenedioxy-1,2,4-benzothiadiazine-3-carbonyl)amino)-3-(S)-benzyl-2-oxo-N-butylpropanamide 1,1-dioxide]
2 |  | 0.008 µM | CCN1C(C(=O)N[C@@H](Cc2ccccc2)C(O)S(=O)(=O)O)Cc2cc3c(cc2S1(=O)=O)OCCO3 (stereo partly drawn) [Example 187, N-(3,4-Dihydro-6,7-ethylenedioxy-2-ethyl-2H-1,2-benzothiazine-3-carbonyl)-L-phenylalaninal 1,1-dioxide, bisulfite addition compound]
